Measured values: PubChem BioAssay (NCI)
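In this assay, cells in 96-well plates receive the compound at five concentrations for 48 hours. Endpoints are linearly interpolated between the surrounding concentrations. TGI is the concentration that stops growth completely.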

Tests used:
Assay in all cases: DTP human tumour cell line panel, 48 h
SNB-78 CNS = test system: SNB-78 CNS
OVCAR-4 ovarian = test system: OVCAR-4 ovarian
SK-MEL-2 melanoma = test system: SK-MEL-2 melanoma
MOLT-4 leukemia = test system: MOLT-4 leukemia
SNB-19 CNS = test system: SNB-19 CNS
SF-539 CNS = test system: SF-539 CNS
HOP-92 NSCLC = test system: HOP-92 NSCLC
SK-MEL-28 melanoma = test system: SK-MEL-28 melanoma
UACC-62 melanoma = test system: UACC-62 melanoma
NCI-H460 lung = test system: NCI-H460 lung
CCRF-CEM leukemia = test system: CCRF-CEM leukemia
LOX IMVI melanoma = test system: LOX IMVI melanoma
HCT-15 colon = test system: HCT-15 colon
LXFL 529 NSCLC = test system: LXFL 529 NSCLC
HL-60(TB) leukemia = test system: HL-60(TB) leukemia
DLD-1 colon = test system: DLD-1 colon
DMS 114 small cell lung = test system: DMS 114 small cell lung
HCC-2998 colon = test system: HCC-2998 colon
HCT-116 colon = test system: HCT-116 colon
UO-31 renal = test system: UO-31 renal
HOP-62 NSCLC = test system: HOP-62 NSCLC
A549 NSCLC = test system: A549 NSCLC
SK-MEL-5 melanoma = test system: SK-MEL-5 melanoma
IGROV1 ovarian = test system: IGROV1 ovarian
OVCAR-8 ovarian = test system: OVCAR-8 ovarian
RPMI-8226 leukemia = test system: RPMI-8226 leukemia
RXF 393 renal = test system: RXF 393 renal
SF-268 CNS = test system: SF-268 CNS
ACHN renal = test system: ACHN renal
XF 498 CNS = test system: XF 498 CNS
SK-OV-3 ovarian = test system: SK-OV-3 ovarian
786-0 renal = test system: 786-0 renal
NCI-H226 lung = test system: NCI-H226 lung
RXF-631 renal = test system: RXF-631 renal
MALME-3M melanoma = test system: MALME-3M melanoma
CAKI-1 renal = test system: CAKI-1 renal
M14 melanoma = test system: M14 melanoma
EKVX NSCLC = test system: EKVX NSCLC
KM20L2 colon = test system: KM20L2 colon
M19-MEL melanoma = test system: M19-MEL melanoma
NCI-H522 lung = test system: NCI-H522 lung
SN12C renal = test system: SN12C renal
SW-620 colon = test system: SW-620 colon
K-562 leukemia = test system: K-562 leukemia
NCI-H23 lung = test system: NCI-H23 lung
COLO 205 colon = test system: COLO 205 colon

C/C=C(/I)CBr
TGI (SNB-78 CNS): 93.9 µM
TGI (OVCAR-4 ovarian): 49.3 µM
TGI (SK-MEL-2 melanoma): 28.4 µM
TGI (MOLT-4 leukemia): 55.9 µM
TGI (SNB-19 CNS): 63.5 µM
TGI (SF-539 CNS): 32.5 µM
TGI (HOP-92 NSCLC): 29.2 µM
TGI (SK-MEL-28 melanoma): 52.6 µM
TGI (UACC-62 melanoma): 29.5 µM
TGI (NCI-H460 lung): 37.4 µM
TGI (CCRF-CEM leukemia): 23.4 µM
TGI (LOX IMVI melanoma): 36.2 µM
TGI (HCT-15 colon): 51.2 µM
TGI (LXFL 529 NSCLC): 27.6 µM
TGI (HL-60(TB) leukemia): 20.5 µM
TGI (DLD-1 colon): 29.2 µM
TGI (DMS 114 small cell lung): 28.4 µM
TGI (HCC-2998 colon): 29.4 µM
TGI (HCT-116 colon): 27.9 µM
TGI (UO-31 renal): 34 µM
TGI (HOP-62 NSCLC): 43.4 µM
TGI (A549 NSCLC): 66.7 µM
TGI (SK-MEL-5 melanoma): 29.4 µM
TGI (IGROV1 ovarian): 33.7 µM
TGI (OVCAR-8 ovarian): 45.4 µM
TGI (RPMI-8226 leukemia): 39.2 µM
TGI (RXF 393 renal): 31.2 µM
TGI (SF-268 CNS): 74.5 µM
TGI (ACHN renal): 45.5 µM
TGI (XF 498 CNS): 27 µM
TGI (SK-OV-3 ovarian): 64.7 µM
TGI (786-0 renal): 30.8 µM
TGI (NCI-H226 lung): 38.5 µM
TGI (RXF-631 renal): 36.2 µM
TGI (MALME-3M melanoma): 31.4 µM
TGI (CAKI-1 renal): 2.85 µM
TGI (M14 melanoma): 28.7 µM
TGI (EKVX NSCLC): 49 µM
TGI (KM20L2 colon): 88.5 µM
TGI (M19-MEL melanoma): 28.6 µM
TGI (NCI-H522 lung): 4.35 µM
TGI (SN12C renal): 34.1 µM
TGI (SW-620 colon): 36.6 µM
TGI (K-562 leukemia): > 100 µM
TGI (NCI-H23 lung): 31.4 µM
TGI (COLO 205 colon): 28.2 µM
